The test system of data set [1] is human islets. Nature of the data set: Viability of cultured human islets. It is filed as cell-based. Here is the method: (§1) Human islet cells were similarly incubated with a N-94 peptide or C-95 peptide for varying periods of time following which GSIS assay and viability measurements were conducted. Insulin was measured using Insulin ELISA kit (Mercodia, Uppsala, Sweden).
(§2) 50 human islets were incubated with N-94 peptide or C-95 peptide for 1, 3, 4, 6 and 9 days following which GSIS assay and viability measurement were conducted. Insulin was measured using Insulin ELISA kit (Mercodia).
Human islets were treated with various peptides of the presently disclosed subject matter and viability was assessed at twenty days post-treatment.

Data set [2] deals with C57BL/6 islets. The data set is described as follows: Glucose-stimulated insulin secretion (GSIS) assay, mouse islets. It is filed as cell-based. Conditions: for insulin secreted in GSIS assay: 50 islets/well, high glucose (28 mM); for GSIS: mouse islet cells. As for the experimental part: C57BL/6 islets were also incubated overnight with 4 μM N-94 peptide (SEQ ID NO: 1) or C-95 peptide or no additive following which Glucose-stimulated Insulin secretion (GSIS) assays were performed.
C57BL/6 islets were incubated overnight with 4 μM N-94 peptide or C-95 peptide or no additive. 50 islets/well were used to perform Glucose stimulated Insulin secretion (GSIS) assay. Islets that were untreated or treated with C-95 peptide or with N-94 peptide and stimulated with high glucose (28 mM) secreted 39.86±7.81, 54.9±18.14, and 91±22.16 ng/ml Insulin. N-94 peptide increased insulin secretion by 2-fold compared to untreated control. Viability of human islets incubated with N-94 peptide at Day 1, 3, 4, 6, and 9 was 95±4, 95±3, 94±4, 84±9, and 80±15% while with C-95 it was 94±4, 91±7, 88±8, 66±16, and 65±18%. With saline it was 94±4, 94±3, 88±8, 58±19, and ˜53. While GSIS results were similar to the mouse results, maximum insulin secretion activity with N-94 peptide was only observed on Day 1 and 3.

Data set [3] has as its system C57BL/6 mice made diabetic by single streptozotocin injection. The data set is described as follows: Minimal islet mass transplantation of peptide-pretreated islets into streptozotocin-diabetic mice, blood glucose. The class given is in vivo, mouse. As for the experimental part:
(§3) Human islet cells were incubated overnight with 1 μM N-94 peptide (SEQ ID NO: 1), N-94/C6 peptide (SEQ ID NO: 62), N104 peptide, Tearpep3 peptide (SEQ ID NO: 21), Tearpep3/C6 peptide (SEQ ID NO: 33), C-95 peptide, or no treatment followed by GSIS assays (se FIG. 2A for the structures of, and Table 2 for the sequences of, these exemplary peptides). C57BL/6 islet cells were pretreated with 4 μM N-94 N-94 peptide or C-95 peptide or saline for 24 hours followed by minimal islet mass transplantation into syngeneic diabetic recipients. Tail vein blood glucoses were measured daily.
75 C57Bl/6 islets were transplanted into C57BL/6 recipients made diabetic by single STZ injection (220 mg/Kg). Islets were pretreated with 4 μM N-94 peptide or C-95 peptide or saline for 24 hours prior to transplantation into diabetic mice (n=2 mice/group). Tail vein blood glucoses were measured daily. Incubation of islets with N-94 peptide permanently returned transplanted mice to normoglycemia with glucoses below 200 mg/dL within 9 days posttransplant. With C-95 peptide treatment, the glucose at Day 12 posttransplant was <250 mg/dL. Mice transplanted with untreated islets remained diabetic.
FIG. 4 is a graph of blood glucose levels of pancreatic islets treated with the indicated peptides and transplanted into diabetic mice observed for 60 days. Shown is a graph of blood glucose levels after minimal transplantation of 75 N-94 peptide-treated, C-95 peptide-treated, or saline-treated C57Bl/6 islets under the kidney capsule of C57BL/6 mice made diabetic before transplantation by single streptozotocin injection (220 mg/kg; two mice per group). Pretreatment was for 24 hours. Tail vein blood was collected daily for glucose analyses. Each line represents the progressive blood glucose level of a single diabetic mouse. Six mice each received N-94 peptide treated islets (black), six others received C-95 peptide treated islets (blue), and four received saline treated islets (orange). N-94 peptide permanently returned transplanted mice to normoglycemia with glucose below 200 mg/dL within 9 days post-transplantation with treatment efficacy continuing after 40 days post-transplantation. With C-95 peptide treatment, the glucose at Day 12 post-transplant was <250 mg/dL. Average blood glucoses measured between Days 22 to 43 were 142.9±17.6 mg/dL for the N-94 group compared to 275±34.8 mg/dL for the C-95 peptide group.

Data set [4] relates to C57BL/6 islets. The class given is cell-based, mouse. Conditions: for viability of islets: C57BL/6, mouse, 4 μM; for mouse islet viability (in words): isolated mouse pancreatic islets, 4 μM peptide, in vitro. As for the experimental part:
C57BL/6 islets (see FIG. 3) were cultured with 4 μM N-94 (N-94) peptide or control peptide C-95 for different time periods ranging from 1-15 days in DMEM at 37° C. Viability of islets was scored by propidium iodide-fluorescein diacetate staining. 35 C57BL/6 islets/per well were cultured with 4 μM of N-94 peptide analog N-94 or control C-95 peptide for 1, 2, 5, 7,10 or 15 days in DMEM at 37° C. Viability of islets was scored after staining with PI/FDA. Islets cultured with N-94 peptide retained 95±3, 89±15, 80±17.5 and 61±21% viability while islets cultured with C-95 peptide retained 95±3, 87±13, 40±28 and 20±19% viability at Day 1, 5, 10 and 15.

Data set [5] deals with human islets. Nature of the data set: Glucose-stimulated insulin secretion (GSIS) assay, human islets. It is filed as cell-based. Conditions: for GSIS response / insulin secretion compared to C-95 peptide: human islets, 1 μM peptide overnight, 28 mM glucose. As for the experimental part: as §1, §3, §2
Human islets were incubated overnight with 1 μM N-94 peptide, N-94/C6 peptide, N104 peptide, Tearpep3 peptide, Tearpep3/C6 peptide, C-95 peptide, or no treatment and GSIS assay performed.

In another data set the test system is human sensory neurons. Nature of the data set: Viability of iPSC-derived sensory neurons stressed with inflammatory cytokines (Alamar Blue). The following applies: day 21 neurons, IFN-γ (1000 U/mL)+TNF-α (100 ng/mL), 1 mM peptide, 72 hours. The class given is cell-based. As for the experimental part: Whether the peptides of the presently disclosed subject matter could enhance viability of human sensory neurons stressed with inflammatory cytokines was tested. Sensory neurons were derived from Induced Pluripotent Stem Cells (iPSC). iPSCs were seeded into 12 well Matrigel-coated plates (1.25×10^5 cells/well). Neural differentiation was initiated when cells were confluent using KSR medium. 100 nM of LDN-193189 and […] of SB431542 were added to the culture from day 0 to 6, to inhibit SMAD signaling. On day 4, 25% of N2 medium was added to the culture, with 100% of N2 medium at day 10. Sensory neurons induction was initiated at day 2 (day 2-10), with the addition of […] CHIR 99021, […] SU5402, and […] DAPT. From day 10 to day 21 neuron maturation was promoted with 25 ng/mL of β-NGF, BDNF, and GDNF. Cells were fed every day.
Sensory neurons (day 21) were incubated with IFN-g (1000 U/mL)+TNF-α (100 ng/mL) with or without 1 mM of the N-94/C-6 peptide or the negative control C-95 peptide for 72 hours in a 96-well plate. Alamar Blue reagent (10%) was added in each well. Fluorescence was measured after 6 hours (excitation at 545 nm/emission at 590 nm).

Setting [6] is: C57BL/6 islets, 4 μM peptide overnight.
[7] abbreviates: 75 islets pretreated 24 hours with 4 μM peptide, STZ-diabetic C57BL/6 mice.

Entries after “also recorded” stand apart in the source; their conditions may differ. Like-named read-outs stand apart in the source and are kept apart here. Where no end group is shown, it is not given here.

From patent US12233108B2, “Compositions and methods for promoting islet viability and enhancing insulin secretion” (University of Virginia Patent Foundation, priority 2019, dated 2025) come the findings set out here.

As to GKNRRKNWHAQLFVL [Tearpep3/N-104], the “viability of human islets twenty days after isolation (in words)” value in the data set on human islets [1] (human islets, 4 μM peptide, versus 4 μM Tearpep3/C-6 and lacritin N-94) is on record as “superior viability”.
For “EDASSDSTGADPAQEAGTSKPNEE [C-95, reference compound]”, the “insulin secreted in GSIS assay” value in the data set with C57BL/6 islets [2] (setting [6]) amounted to 54.9 ± 18.14 ng/mL. In the data set on C57BL/6 islets [2] (4 μM peptide overnight), this sequence returned a GSIS of 54.9 ± 18.1 ng/mL. Besides, the “average blood glucose between Days 22 to 43” value in data set [3] (setting [7]) was 275 ± 34.8 mg/dL. Besides, the “blood glucose at Day 12 posttransplant” value in data set [3] (setting [7]) is less than 250 mg/dL. The “viability of human islets” value is reported as 94±4% in the data set with human islets [1] (1 days); 91±7% in the data set with human islets [1] (3 days); 88±8% in the data set with human islets [1] (4 days); 66% in the data set with human islets [1] (6 days); 65±18% in the data set with human islets [1] (9 days). The viability of islets in the data set with C57BL/6 islets [4] (1 days) worked out at 95±3%; with C57BL/6 islets [4] (5 days) it was 87±13%; in the data set on C57BL/6 islets [4] (10 days) it was 40±28%; with C57BL/6 islets [4] (15 days) it was 20%. Further, the “mouse islet viability (in words)” value in the data set with C57BL/6 islets [4] was “not”.
As to KQFIENGSEFAQKLLKKFSLLKPWA [N-94], the “insulin secreted in GSIS assay” value with C57BL/6 islets [2] (setting [6]) amounted to 91 ± 22.16 ng/mL. For the same sequence, the “increase of GSIS / insulin secretion compared to untreated” value in the data set on C57BL/6 islets [2] (C57BL/6 islets, 4 μM peptide overnight, high glucose) is reported as roughly 2 fold. Further, the “glucose-dependent insulin secretion (in words)” value in the data set on C57BL/6 islets [2] (isolated mouse pancreatic islets, 4 μM peptide, treatment 24 hours after islet isolation) is listed as “promotes”. In the data set on C57BL/6 islets [2] (4 μM peptide overnight), this sequence displayed a GSIS of 91 ± 22 ng/mL. Moreover, the “average blood glucose between Days 22 to 43” value in data set [3] (setting [7]) was 142.9 ± 17.6 mg/dL. The “time to normoglycemia (glucose below 200 mg/dL) posttransplant” value in data set [3] (setting [7]) was no more than 9 days. Moreover, in data set [3] (setting [7]), the “treatment efficacy continuing posttransplant” value is recorded as greater than 40 days. Further, the “blood glucose on return to normoglycemia” value in data set [3] (75 islets pretreated 24 hours with 4 μM peptide, transplanted into STZ-diabetic C57BL/6 mice, within 9 days posttransplant) is recorded as “below 200 mg/dL”. For the same sequence, in data set [3] (pretreated islets transplanted into streptozotocin diabetic mice), the “effect of peptide-pretreated islet transplant on diabetes (in words)” value is “rapidly restores normoglycemia; also recorded: reverse disease”. In the data set with human islets [5], the “GSIS response / insulin secretion compared to C-95 peptide” value is listed as “near doubling; also recorded: nearly doubled”. The “viability of human islets” value in the data set on human islets [1] (1 days) turned out to be 95±4%; in the data set with human islets [1] (3 days), 95±3%; in the data set with human islets [1] (4 days) it was 94±4%; in the data set on human islets [1] (6 days), 84%; in the data set on human islets [1] (9 days), 80±15%. Further, the viability of islets is given as 95±3% in the data set on C57BL/6 islets [4] (1 days), 89±15% in the data set with C57BL/6 islets [4] (5 days), 80±17.5% in the data set with C57BL/6 islets [4] (10 days) and 61% in the data set with C57BL/6 islets [4] (15 days). Also, the “mouse islet viability (in words)” value in the data set on C57BL/6 islets [4] was “promotes mouse islet viability”.
For AQKLLKKFSLLKPWA [N-104], in the data set on human islets [5] (100 human islets, 1 μM peptide, 24 hours), the “rank of activity in glucose-dependent insulin secretion assay” value is “Most active”. In addition, the “GSIS response / insulin secretion compared to C-95 peptide” value with human islets [5] was roughly 3.5 fold.
As to “KQFIENGSEFAQKLLKKFS [N-94/C-6, fragment of lacritin]”, the “viability of stressed human sensory neurons (in words)” value in the data set with human sensory neurons was “restored viability”.
